According to patent publication US20250134860A1, “NOVEL COMPOUND, AND COMPOSITION FOR PREVENTING, ALLEVIATING OR TREATING BACTERIAL INFLAMMATION AND INFLAMMASOME-MEDIATED DISEASES, COMPRISING SAME AS ACTIVE INGREDIENT” (Quorum Bio Co., Ltd., priority 2022, published 2025):

How the values were obtained:
[1] = tested on: mouse bone marrow-derived macrophages; assay: Cytotoxicity in mouse bone marrow-derived macrophages (MTT); type: cell-based; details: at a concentration of 16 μM or less (0.5-16 μM tested), 24 hours
Procedure: Bone marrow was isolated from the femur and tibia of 8-12 week old C57BL/6J mice (available from Daehan Biolink) using a 26 g syringe, and the isolated bone marrow was differentiated into macrophages by culturing a medium containing IMDM media+30% L929 cell supernatant+10% fetal bovine serum+1% pencillin/streptomycin+1% non-essential amino acid+1% sodium pyruvate in a 150TT cell culture plate for 6 days, and used for the experiment.
The differentiated macrophages were seeded in 200 μl increments in a 48-well plate at a concentration of 1×10^6 cell/ml, and stabilized at 37° C. and 5% CO2 for 12 hours. […]
Then, the supernatant of the cultured cells was removed, treated with 200 μl of MTT solution having a concentration of 400 μg/ml, and then reacted at […] and 5% CO2 for 4 hours. Then, the reaction solution was removed, 200 μl of DMSO was added, and the absorbance was measured at 570 nm. At this time, the viability of cells treated with the sample was calculated based on the viability of untreated cells considered as 100%, and is shown in FIG. 6. […]
The supernatant of the cultured cells was then removed, 200 μl of MTT solution having a concentration of 400 μg/ml was added, and then reacted at […] and 5% CO2 for 4 hours. Then, the reaction solution was removed, 200 μl of DMSO was added, and the absorbance was measured at 570 nm. […]

[2] = tested on: A. baumannii; assay: Inhibitory effect on biofilm formation in A. baumannii; type: cell-based, Acinetobacter baumannii; details: 0.006, 0.06, 0.6 μg/ml; 48 hours; compared with control (CT)
Procedure: The inhibitory effect of the compound of Example 1-2 on biofilm formation in P. aeruginosa (available from the Korean Collection for Oral Microbiology (KCOM)) and A. baumannii (available from the Korea Culture Center of Microorganisms (KCCM)) was confirmed.
Sterilized cover glass slips (round, 12 mm radius) were placed individually at a bottom of each well of a cell culture plate (24-well plate) using forceps, and the compound of Example 1-2 was diluted in the medium (P. aeruginosa: LB medium, A. baumannii: NB medium) cultured with bacteria so that the final concentrations were 0.006 μg/ml, 0.06 μg/ml, and 0.6 μg/ml.
The prepared culture medium was dispensed into a cell culture plate in which glass slips were placed, and the respective bacteria were inoculated to a concentration of 2×10^7 cells/ml. […]
(§1) The biofilm in which bacteria cultured for each group were formed on glass slips was stained with 1% crystal violet solution for 15 minutes, and then washed three times with PBS (phosphate buffered saline) solution, and decolorized with acetone-alcohol (20:80, vol/vol). After the decolorizing solution containing crystal violet was put in 200 μl increments in a 96-well microplate for each group, the absorbance (OD590nm) was measured using an absorbance microplate reader (Epoch2, Bio-Tek, USA), and the biofilm formation level was compared.

[3] = tested on: human monocyte cell line (THP-1); assay: Cytotoxicity in human monocyte cell line (CCK-8); type: cell-based; details: 0.002, 0.02, 0.2, 2 μM, 24 hours, at any concentration
Procedure: The human monocyte cell line (THP-1) was cultured in a 10% fetal bovine serum (Hyclone, Waltham, MA, USA), and a RPMI 1640 medium supplemented with 2.05 mM L-glutamate and antibiotics (100 units/ml penicillin, 100 μg/ml streptomycin), and then seeded in a 96 well microtiter plate at a concentration of 1×10^5 cells/well. The compound of Example 1-2 was diluted to a final concentration of 0.002 μM, 0.02 μM, 0.2 μM, and 2 μM, cells in each well were treated and cultured for 24 hours. Then, the cultured cells were treated with 10 μl of Cell Counting Kit-8 (CCK-8, DOJINDO, Kumamoto, Japan) solution in each well, and then the absorbance was measured at 450 nm for each time zone (1 h, 2 h, 3 h), and the results were derived based on the absorbance data from the last time zone, 3 h. At this time, the cell viability of untreated cells was set as 100% as the reference, and the cell viability of the cells treated with the sample was calculated and shown in FIG. 19.

[4] = tested on: E. coli (KCTC 2571 (ATCC 8739)); assay: Inhibitory effect on E. coli biofilm formation; type: cell-based, Escherichia coli; details: 0.006-4.8 μg/ml; 48 hours; compared with control (CT)
Procedure: The inhibitory effect of the compound of Example 1-2 on biofilm formation in E. coli (KCTC 2571 (ATCC 8739); available from the Korean Collection for Oral Microbiology (KCOM)) was confirmed.
Sterilized cover glass slips (round, 12 mm radius) were placed individually at a bottom of each well of a cell culture plate (24-well plate) using forceps, and the compound of Example 1-2 was diluted in the medium (LB medium) to be cultured with bacteria so that the final concentrations were 0.006 μg/ml, 0.06 μg/ml, 0.6 μg/ml, 1.2 μg/ml, 2.4 μg/ml, and 4.8 μg/ml.
The prepared culture medium was dispensed into a cell culture plate in which glass slips were placed, and the bacteria were inoculated to a concentration of 2×10^7 cells/ml. […]
as §1, with “levels were” for “level was”

With Cc1ccc(C(=C2c3ccccc3C(=O)N2C)c2ccc(C)cc2)cc1 [Example 1-2, 3-(di-p-tolylmethylene)-2-methylisoindolin-1-one] the “cytotoxicity (cell viability, MTT)” value [1] was “did not exhibit cytotoxicity”, the “biofilm formation of A. baumannii” value [2] was “significantly suppressed in a concentration-dependent manner” and the “cytotoxicity (cell viability, CCK-8)” value [3] was “did not exhibit cytotoxicity”. For the same compound, the “biofilm formation of E. coli” value [4] was “significantly suppressed in a concentration-dependent manner”.
